Assay results taken from patent US20190100534A1, “Cephem Compounds with Latent Reactive Groups” (Gladius Pharmaceuticals, Inc., priority 2017, published 2019).

Tests used:
EC(KB2 CTX-M-14) = experiment: MIC determination; assay type: cell-based, Escherichia coli; details: Escherichia coli, 18 h, read-out: Minimum Inhibitory Concentrations, EC(KB2 CTX-M-14)
Outline: (§1)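 Broth microdilution in cation-adjusted Mueller-Hinton broth with 20 μM apo-transferrin, two-fold compound series from 64 μg/mL, inoculum adjusted to 0.5 McFarland from 4-5 h LB cultures. Plates incubated 18 h at 37 °C. MIC taken as lowest concentration leaving a clear well.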

EC(KB1 CTX-M-14) = experiment: MIC determination; assay type: cell-based, Escherichia coli; details: Escherichia coli, 18 h, read-out: Minimum Inhibitory Concentrations, EC(KB1 CTX-M-14)
Outline: as §1

EA (URMC -3) = experiment: MIC determination; assay type: cell-based; details: CAMH broth, 20 μM Apo-Transferrin, 37° C., 18 hours
Method: (§2) Sterile technique was used throughout these experiments. Suspensions of organisms were removed from storage (−80° C.) and partially thawed. Partially thawed organisms (1 μL) were inoculated into 3 mL sterile LB Broth in a sterile culture tube and capped, then cultured at 37° C. with shaking for 4-5 hours until the optical density at 600 nm (OD600) was greater than 0.1 on a single beam spectrophotometer.
(§3) The concentration of organisms was adjusted to 0.08-0.1 OD600 (0.5 McFarland units) by dilution with sterile cation-adjusted Meuller-Hinton (CAMH) broth. The suspensions were used within 30 minutes of preparation.
(§4) A stock solution was made of each test compound by measuring 6.4 mg of the compound on an analytical balance and dissolving it in DMSO (1 mL) to get a transparent solution. The solutions were stored at −20° C. and thawed prior to use.
(§5) Sterile CAMH broth (200 μL) containing 20 μM Apo-Transferrin was pipetted into the first row of 8 columns of a sterile, round-bottomed, transparent, 96-well microplate using an 8-channel pipette equipped with sterile tips. One hundred μL was pipetted into the wells of the remaining 11 rows.
(§6) To each well of the first row was pipetted 2.0 μL of the 6.4 mg/mL stock test compound stock solution to give 1:100 dilutions and a final concentration of 64 μg/mL and mixed.
(§7) With an 8-channel pipette equipped with sterile tips, 100 μL of the first row solution was transferred to the second row and mixed. The process was repeated for the second to third rows and continued through row 11. One hundred μL from row 11 was removed and discarded so that all 12 rows contained 100 μL. Row 12 contained no compound and rows 1-11 contained 64, 32, 16, 8, 4, 2, 1, 0.5, 0.25, 0.125, […] of a given compound.
(§8) Inoculant suspensions (0.5 μL) were added to the 12 wells of each column. The plates were then covered and incubated at 37° C. overnight for 18 hours.
(§9) For each organism the MIC was determined by identifying the transparent well with the lowest test compound concentration.

KP(ATCC SHV-18) = experiment: MIC determination; assay type: cell-based, Klebsiella pneumoniae; details: CAMH broth, 20 μM Apo-Transferrin, 37° C., 18 hours
Outline: as §1

[1] = tested on: ENC (Enterobacter cloacae); experiment: MIC determination; assay type: cell-based; details: CAMH broth, 20 μM Apo-Transferrin, 37° C., 18 hours
Outline: as §1

[2] = tested on: KP (Klebsiella pneumoniae); experiment: MIC determination; assay type: cell-based; details: 20 μM Apo-Transferrin, 37° C., 18 hours
Outline: as §1

[3] = tested on: CF (Citrobacter freundii); experiment: MIC determination; assay type: cell-based; details: Citrobacter freundii, CAMH broth, 20 μM Apo-Transferrin, 37° C., 18 hours, read-out: Minimum Inhibitory Concentrations, CF
Outline: as §1

PM (Proteus mirabilis) = experiment: MIC determination; assay type: cell-based; details: Proteus mirabilis, CAMH broth, 20 μM Apo-Transferrin, 37° C., 18 hours, read-out: Minimum Inhibitory Concentrations, PM
Outline: as §1

SM (Serratia marcescens) = experiment: MIC determination; assay type: cell-based; details: Serratia marcescens, CAMH broth, 20 μM Apo-Transferrin, 37° C., 18 hours, read-out: Minimum Inhibitory Concentrations, SM
Outline: as §1

[4] = tested on: KOXY (Klebsiella oxytoca); experiment: MIC determination; assay type: cell-based; details: Klebsiella oxytoca, CAMH broth, 20 μM Apo-Transferrin, 37° C., 18 hours, read-out: Minimum Inhibitory Concentrations, KOXY
Outline: as §1

[5] = tested on: A. baumannii (JMI OXA-58); experiment: MIC determination; assay type: cell-based, Acinetobacter baumannii; details: Acinetobacter baumannii, class D carbapenemase producer, CAMH broth, 20 μM Apo-Transferrin, 37° C., 18 hours, read-out: Minimum Inhibitory Concentrations, A. baumannii (JMI OXA-58)
Outline: as §1

ENA (URMC-2) = experiment: MIC determination; assay type: cell-based, Enterobacter aerogenes; details: Klebsiella aerogenes, CAMH broth, 20 μM Apo-Transferrin, 37° C., 18 hours, read-out: Minimum Inhibitory Concentrations, ENA (URMC-2)
Method: as §2, §3, §4, §5, §7, §8, §9

ENA (URMC-1) = experiment: MIC determination; assay type: cell-based, Enterobacter aerogenes; details: Klebsiella aerogenes, CAMH broth, 20 μM Apo-Transferrin, 37° C., 18 hours, read-out: Minimum Inhibitory Concentrations, ENA (URMC-1)
Method: as §2, §3, §4, §5, §7, §8, §9

PM (RR -1) = experiment: MIC determination; assay type: cell-based, Proteus mirabilis; details: CAMH broth, 20 μM Apo-Transferrin, 37° C., 18 hours
Method: as §2, §3, §4, §5, §7, §8, §9

various enteric bacteria = experiment: MIC determination, summary in text; assay type: cell-based; details: review of Tables 3-1 to 3-6
Method: as §2, §3, §4, §5, §6, §7, §8, §9

[6] = tested on: various Pseudomonas strains; experiment: MIC determination, summary in text; assay type: cell-based, Pseudomonas aeruginosa; details: review of Tables 1-1 and 1-2
Method: as §2, §3, §4, §5, §7, §8, §9

EC (Escherichia coli) = experiment: MIC determination; assay type: cell-based; details: 20 μM Apo-Transferrin, 37° C., 18 hours; for MIC: Escherichia coli, first EC column of Table 3-1, CAMH broth, read-out: Minimum Inhibitory Concentrations, EC; for Minimum Inhibitory Concentrations, EC: Table 3-1, CAMH broth
Outline: as §1

[7] = first KP column of Table 3-1, CAMH broth
[8] = second KP column of Table 3-1, CAMH broth

Row | SMILES | MIC (EC(KB2 CTX-M-14)) [µg/mL] | MIC (EC(KB1 CTX-M-14)) [µg/mL] | Mimimum Inhibitory Concentrations, EA (URMC -3) (EA (URMC -3)) [microgram/mL] | Minimum Inhibitory Concentrations, KP(ATCC SHV-18) (KP(ATCC SHV-18)) [microgram/mL] | Mimimum Inhibitory Concentrations, ENC [1] [microgram/mL] | Minimum Inhibitory Concentrations, KP [2, 7] [microgram/mL] | Minimum Inhibitory Concentrations, KP [2, 8] [microgram/mL] | MIC [3] [µg/mL] | MIC (PM (Proteus mirabilis)) [µg/mL] | MIC (SM (Serratia marcescens)) [µg/mL] | MIC [4] [µg/mL] | MIC [5] [µg/mL] | MIC (ENA (URMC-2)) [µg/mL] | MIC (ENA (URMC-1)) [µg/mL] | Mimimum Inhibitory Concentrations, PM (RR -1) (PM (RR -1)) [microgram/mL] | MICs for various enteric bacteria, in words (various enteric bacteria) | MICs for various Pseudomonas strains, in words [6] | MIC (EC (Escherichia coli)) [µg/mL] | Minimum Inhibitory Concentrations, EC (EC (Escherichia coli)) [microgram/mL]
1 | CC(C)(O/N=C(\C(=O)N[C@@H]1C(=O)N2C(C(=O)O)=C(C=Cc3ccc(C[n+]4ccc(-c5ccc(O)c(O)c5)cc4)cc3)CS[C@H]12)c1csc(N)n1)C(=O)O (mixture of isomers) [Compound 412, 1-(4-((E/Z)-2-((6R,7R)-7-((Z)-2-(2-aminothiazol-4-yl)-2-(((2-carboxypropan-2-yl)oxy)imino)acetamido)-2-carboxy-8-oxo-5-thia-1-azabicyclo[4.2.0]oct-2-en-3-yl)vinyl)benzyl)-4-(3,4-dihydroxyphenyl)pyridin-1-ium] | 1 | 0.5 | ≤0.06 | 1 | 4 | 2 | 2 | ≤ 0.06 | ≤ 0.06 | 0.5 | 0.5 | > 64 | 0.13 | 0.25 | ≤0.06 | – | – | – | –
2 | CC(C)(O/N=C(\C(=O)N[C@@H]1C(=O)N2C(C(=O)O)=C(C=Cc3ccc(C[N+]4(C)CCc5c(Cl)c(O)c(O)c(Cl)c5C4)cc3)CS[C@H]12)c1csc(N)n1)C(=O)O (mixture of isomers) [Compound 429, 2-(4-((E/Z)-2-((6R,7R)-7-((Z)-2-(2-aminothiazol-4-yl)-2-(((2-carboxypropan-2-yl)oxy)imino)acetamido)-2-carboxy-8-oxo-5-thia-1-azabicyclo[4.2.0]oct-2-en-3-yl)vinyl)benzyl)-5,8 dichloro-6,7-dihydroxy-2-methyl-1,2,3,4-tetrahydroisoquinolin-2-ium] | 1 | – | 2 | – | – | 1 | 1 | – | – | – | 0.5 | > 64 | 1 | 2 | ≤0.06 | – | – | – | –
3 | CC(C)(O/N=C(\C(=O)N[C@@H]1C(=O)N2C(C(=O)O)=C(C=Cc3ccc(C[N+]4(C)Cc5c(Cl)c(O)c(O)c(Cl)c5C4)cc3)CS[C@H]12)c1csc(N)n1)C(=O)O (mixture of isomers) [Compound 431, 2-(4-((E/Z)-2-((6R,7R)-7-((Z)-2-(2-aminothiazol-4-yl)-2-(((2-carboxypropan-2-yl)oxy)imino)acetamido)-2-carboxy-8-oxo-5-thia-1-azabicyclo[4.2.0]oct-2-en-3-yl)vinyl)benzyl)-4,7-dichloro-5,6-dihydroxy-2-methylisoindolin-2-ium] | – | – | 1 | – | – | 0.13 | 0.13 | – | – | – | 0.13 | > 64 | 0.5 | 0.5 | ≤0.06 | low microgram/mL MICs | low microgram/mL MICs | 0.5 | 0.5
4 | CC(C)(O/N=C(\C(=O)N[C@@H]1C(=O)N2C(C(=O)O)=C(C=Cc3ccc(C[N+]4(C)Cc5cc(O)c(O)c(Cl)c5C4)cc3)CS[C@H]12)c1csc(N)n1)C(=O)O (mixture of isomers) [Compound 432, 2-(4-((E/Z)-2-((6R,7R)-7-((Z)-2-(2-aminothiazol-4-yl)-2-(((2-carboxypropan-2-yl)oxy)imino)acetamido)-2-carboxy-8-oxo-5-thia-1-azabicyclo[4.2.0]oct-2-en-3-yl)vinyl)benzyl)-4-chloro-5,6-dihydroxy-2-methylisoindolin-2-ium] | – | – | 0.5 | – | – | 1 | 1 | – | – | – | 0.5 | > 64 | 0.25 | 1 | ≤0.06 | low microgram/mL MICs | – | 0.25 | 0.25
5 | CC(C)(O/N=C(\C(=O)N[C@@H]1C(=O)N2C(C(=O)O)=C(C=Cc3ccc(C[N+]4(C)CCc5ccc(O)c(O)c5C4)cc3)CS[C@H]12)c1csc(N)n1)C(=O)O (mixture of isomers) [Compound 442, 2-(4-((E/Z)-2-((6R,7R)-7-((Z)-2-(2-aminothiazol-4-yl)-2-(((2-carboxypropan-2-yl)oxy)imino)acetamido)-2-carboxy-8-oxo-5-thia-1-azabicyclo[4.2.0]oct-2-en-3 yl)vinyl)benzyl)-7,8-dihydroxy-2-methyl-1,2,3,4-tetrahydroisoquinolin-2-ium] | – | 1 | 1 | 0.5 | 8 | – | – | – | – | – | – | > 64 | 1 | 0.5 | ≤0.06 | – | – | 0.25 | 0.25
6 | C#CC[N+]1(Cc2ccc(C=CC3=C(C(=O)O)N4C(=O)[C@@H](NC(=O)/C(=N\OC(C)(C)C(=O)O)c5csc(N)n5)[C@H]4SC3)cc2)CCc2cc(O)c(O)cc2C1 (mixture of isomers) [Compound 446, 2-(4-((E/Z)-2-((6R,7R)-7-((Z)-2-(2-aminothiazol-4-yl)-2-(((2-carboxypropan-2-yl)oxy)imino)acetamido)-2-carboxy-8-oxo-5-thia-1-azabicyclo[4.2.0]oct-2-en-3-yl)vinyl)benzyl)-6,7-dihydroxy-2-(prop-2-yn-1-yl)-1,2,3,4-tetrahydroisoquinolin-2-ium] | 8 | 2 | – | 1 | 4 | – | – | – | – | – | – | > 64 | – | – | – | – | – | 0.5 | 0.5
